Measured values as given in patent US11633377B2, “Treatment of circadian rhythm disorders” (Vanda Pharmaceuticals Inc., priority 2012, dated 2023).
Read-outs that look alike come from different tables or passages of the source. Blank lines part the entries; values can stand above or below the compound they belong to.

Experiments:
Mel1b (MT2R) = target: T1, Mel1b (MT2R) (Homo sapiens, UniProt P49286); assay: Affinity (Ki) for melatonin receptor MT2R; type: binding; details: MT2R vs MT1R
T1 sequence (P49286 1-362): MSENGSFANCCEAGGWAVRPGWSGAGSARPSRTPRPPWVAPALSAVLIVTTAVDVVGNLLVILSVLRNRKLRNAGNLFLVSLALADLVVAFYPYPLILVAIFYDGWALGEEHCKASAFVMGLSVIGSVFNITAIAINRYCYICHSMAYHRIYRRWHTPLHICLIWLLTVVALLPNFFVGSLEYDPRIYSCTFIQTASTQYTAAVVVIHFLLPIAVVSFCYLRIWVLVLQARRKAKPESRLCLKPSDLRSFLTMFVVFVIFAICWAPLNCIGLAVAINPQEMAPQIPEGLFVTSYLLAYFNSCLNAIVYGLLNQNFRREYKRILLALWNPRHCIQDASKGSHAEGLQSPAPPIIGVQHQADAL

[1] = Solubility and pH of saturated solution; type: physicochemical
patients with Non-24 = assay: SET Study: Phase III randomized, double-masked, placebo-controlled study in Non-24; type: in vivo, human
Procedure: Specifically, patients were orally administered 20 mg tasimelteon per day for at least 12 weeks prior to re-estimating tau. Patients were selected for randomization or open label based on baseline tau estimates. Drug was administered at about 1 hour prior to target sleep time, as determined by patients based on a 9 hour nighttime sleep period.
The SET study was an 84 patient randomized, double-masked, placebo-controlled study in patients with Non-24. The primary endpoints for this study were Entrainment of the melatonin (aMT6s) rhythm to the 24-hour clock and Clinical Response as measured by Entrainment plus a score of greater than or equal to 3 on the following N24CRS:
The SET study also assessed a number of secondary endpoints including Entrainment of cortisol rhythm and a broad range of clinical sleep and wake parameters. These parameters included improvement in the total nighttime sleep in the worst 25% of nights (LQ-nTST), decrease in the total daytime sleep duration in the worst 25% of days (UQ-dTSD) and midpoint of sleep timing (MoST) which is derived from a combination of the sleep reported for both nighttime and daytime. CGI-C is a seven-point rating scale of global functioning with lower scores indicating larger improvements.

[2] = system: blind individuals with Non-24; assay: RESET Study: randomized withdrawal study, maintenance of effect in Non-24; type: in vivo, human
Procedure: Patients were treated with tasimelteon for at least twelve weeks during an open-label run-in phase during the SET Study. Patients who responded to tasimelteon treatment during the run-in phase were then randomized to receive either placebo or tasimelteon (20 mg/day) for 2 months.
The primary endpoint of the RESET Study was the maintenance of effect as measured by entrainment of the melatonin (aMT6s) rhythm.
The RESET study also assessed a number of secondary endpoints including maintenance of entrainment of the cortisol rhythm and a range of sleep and wake parameters including LQ-nTST (total nighttime sleep in the worst 25% of nights), UQ-dTSD (total daytime sleep duration in the worst 25% of days) and MoST (midpoint of sleep timing from both nighttime and daytime sleep).

Non-24 patients = assay: Entrainment by baseline peak aMT6s and beta blocker status (clinical studies); type: in vivo, human
Procedure: Results of clinicalstudy also show a strong correlation between endogenous melatonin and efficacy of tasimelteon in entraining patients to a 24 hour circadian rhythm. The following table (Table 3A) compares the peak aMT6s levels in the 24 entrained and 23 non-entrained patients.
Data from these studies currently available also indicate that beta blocker therapy is […] related to efficacy of tasimelteon, i.e., patients receiving beta blocker therapy were less likely to become entrained than patients who were not.

[3] = Effect of fluvoxamine co-administration on tasimelteon pharmacokinetics; type: in vivo, human; details: for AUC: both sexes, human, in vivo
Procedure: Twenty-four healthy male or female subjects between the ages of 18 and 55 years of age (inclusive) who were non-smokers with a body mass index (BMI) of 18 and 35 kg/m2 participated in this open-label, single-sequence study conducted at one site. On day 1, subjects were administered 5.667 mg of tasimelteon.

[4] = Effect of smoking on concentration of tasimelteon and metabolites; type: in vivo, human
Description: Smokers were defined as those smoking 10 or more cigarettes per day. Non-smokers were defined as those smoking no cigarettes per day.

[5] = tmax after administration; type: in vivo, human; details: tasimelteon
[6] = Day 8 (with fluvoxamine) vs Day 1
[7] = Day 1: 5.667 mg tasimelteon alone
[8] = fluvoxamine + tasimelteon vs tasimelteon alone
[9] = Day 8: 5.667 mg tasimelteon + 50 mg fluvoxamine

Compound: CCC(=O)NC[C@@H]1C[C@H]1c1cccc(O)c1CC(=O)O [M9]
Geometric Mean Ratio, AUC [3, 6]: 122.56% | Geometric Mean Ratio, Cmax [3, 6]: 64.94% | Geometric Mean Ratio, t1/2 [3, 6]: 328.02% | AUC [3, 7]: 104 ± 30 ng·h/mL | Geometric Mean Ratio, AUC (inf) ([4]; Smokers vs Non-Smokers): 74.36% | Geometric Mean Ratio, Cmax ([4]; Smokers vs Non-Smokers): 77.18% | Geometric Mean Ratio, t1/2 ([4]; Smokers vs Non-Smokers): 85.40%

Compound: CCC(=O)NC[C@@H]1C[C@H]1c1cccc(O)c1CCO [M11]
Geometric Mean Ratio, AUC [3, 6]: 126.03% | Geometric Mean Ratio, Cmax [3, 6]: 68.71% | Geometric Mean Ratio, t1/2 [3, 6]: 248.35% | AUC [3, 7]: 44.5 ± 17.2 ng·h/mL | Geometric Mean Ratio, AUC (inf) ([4]; Smokers vs Non-Smokers): 81.84% | Geometric Mean Ratio, Cmax ([4]; Smokers vs Non-Smokers): 84.50% | Geometric Mean Ratio, t1/2 ([4]; Smokers vs Non-Smokers): 94.13%

Compound: CCC(=O)NCC1CC1c1cccc2c1C(O)CO2 (centres unmarked) [M12]
AUC (ml) [3, 7]: 189 ± 90.8 ng·h/mL | Geometric Mean Ratio, AUC [3, 6]: 274.81% | Geometric Mean Ratio, Cmax [3, 6]: 92.74% | Geometric Mean Ratio, t1/2 [3, 6]: 241.02% | AUC (ml) [3, 9]: 435 ± 109.3 ng·h/mL | Geometric Mean Ratio, AUC (inf) ([4]; Smokers vs Non-Smokers): 84.87% | Geometric Mean Ratio, Cmax ([4]; Smokers vs Non-Smokers): 115.53% | Geometric Mean Ratio, t1/2 ([4]; Smokers vs Non-Smokers): 73.31%

Further lines, with some results ahead:

greater affinity for MT2R relative to MT1R (Mel1b (MT2R)): 2-4 times | native pH of a saturated solution in water [1]: 8.5 | Geometric Mean Ratio, AUC [3, 6]: 653.36% | Geometric Mean Ratio, CL/F [3, 6]: 15.31% | Geometric Mean Ratio, Cmax [3, 6]: 232.74% | Geometric Mean Ratio, t1/2 [3, 6]: 211.82% | AUC [3, 7]: 102 ± 61.5 ng·h/mL | AUC)-inf increase upon co-administration of fluvoxamine [3, 8]: approximately 7 fold | Cmax increase upon co-administration of fluvoxamine [3, 8]: approximately 2 fold | CL/F ([4]; Non-Smokers): 1,482 ± 1,008 mL/mm | CL/F ([4]; Smokers): 2,290 ± 1,232 mL/mm | Geometric Mean Ratio, AUC (inf) ([4]; Smokers vs Non-Smokers): 60.14% | Geometric Mean Ratio, CL/F ([4]; Smokers vs Non-Smokers): 166.27% | Geometric Mean Ratio, Cmax ([4]; Smokers vs Non-Smokers): 63.98% | Geometric Mean Ratio, Vz/F ([4]; Smokers vs Non-Smokers): 144.39% | Geometric Mean Ratio, t1/2 ([4]; Smokers vs Non-Smokers): 86.84% | tmax [5]: approximately one-half
Compound: CCC(=O)NC[C@@H]1C[C@H]1c1cccc2c1CCO2 (relative stereo) [Tasimelteon, trans-N-[[2-(2,3-dihydrobenzofuran-4-yl)cycloprop-1yl]methyl]propanamide]
Clinical Response 2 (Entrainment + N24CRS >=2) (patients with Non-24; 20 mg/day oral): 28.9% | Entrainment (aMT6s) (patients with Non-24; 20 mg/day oral): 20.0% | LQ-nTST (LS mean minutes) (patients with Non-24; LS mean): 57.0 min | CGI-C (LS mean minutes) (patients with Non-24; LS mean, smaller numbers indicate improvement): 2.6 min | LQ-nTST and UQ-dTSD >=90 mm (patients with Non-24; only subjects with significant sleep and nap problems at baseline): 23.8% | time to relapse analysis ([2]; 45 min decrement of weekly average nighttime sleep, P=0.0907): placebo treated patients relapsed in higher numbers and at an earlier time than tasimelteon treated patients | Maintenance of entrainment (aMT6s) ([2]; RESET, 20 mg/day): 90.0% | maintenance of entrainment (cortisol) ([2]; RESET, 20 mg/day): 80.0% | MoST (LS mean minutes), Difference ([2]; RESET, tasimelteon vs placebo): 36.0 min | maintenance of entrainment (cortisol), Difference ([2]; RESET, tasimelteon vs placebo): 60.0% | Entrained, number of patients (Non-24 patients): 13 | Non-entrained, number of patients (Non-24 patients): 21 | Entrained, % of patients (Non-24 patients; Peak aMT6s <1500 ng/hr): 41% | Entrained, number of patients (Non-24 patients; Peak aMT6s <1500 ng/hr): 12 | Non-entrained, % of patients (Non-24 patients; Peak aMT6s <1500 ng/hr): 59% | Non-entrained, number of patients (Non-24 patients; Peak aMT6s <1500 ng/hr): 17 | Entrained, % of patients (Non-24 patients; Peak aMT6s <12000 ng/hr): 38% | Non-entrained, % of patients (Non-24 patients; Peak aMT6s <12000 ng/hr): 62% | Entrained, % of patients (Non-24 patients; Peak aMT6s >1500 ng/hr): 67% | Entrained, number of patients (Non-24 patients; Peak aMT6s >1500 ng/hr): 12 | Non-entrained, % of patients (Non-24 patients; Peak aMT6s >1500 ng/hr): 33% | Non-entrained, number of patients (Non-24 patients; Peak aMT6s >1500 ng/hr): 6 | Entrained, % of patients (Non-24 patients; Peak aMT6s >2000 ng/hr): 85% | Entrained, number of patients (Non-24 patients; Peak aMT6s >2000 ng/hr): 11 | Non-entrained, % of patients (Non-24 patients; Peak aMT6s >2000 ng/hr): 15% | Non-entrained, number of patients (Non-24 patients; Peak aMT6s >2000 ng/hr): 2 | Entrained, % of patients (Non-24 patients; Peak aMT6s All): 51% | Entrained, number of patients (Non-24 patients; Peak aMT6s All): 24 | Non-entrained, % of patients (Non-24 patients; Peak aMT6s All): 49% | Non-entrained, number of patients (Non-24 patients; Peak aMT6s All): 23 | Entrained, number of patients (Non-24 patients; Taking Beta Blocker: No): 24 | Non-entrained, number of patients (Non-24 patients; Taking Beta Blocker: No): 19 | Entrained, number of patients (Non-24 patients; Taking Beta Blocker: Yes): 0 | Non-entrained, number of patients (Non-24 patients; Taking Beta Blocker: Yes): 4

AUC (ml) [3, 7]: 106 ± 32.6 ng·h/mL | Geometric Mean Ratio, AUC [3, 6]: 125.05% | Geometric Mean Ratio, Cmax [3, 6]: 69.31% | Geometric Mean Ratio, t1/2 [3, 6]: 349.81% | AUC (ml) [3, 9]: 133 ± 32.9 ng·h/mL | Geometric Mean Ratio, AUC (inf) ([4]; Smokers vs Non-Smokers): 97.31% | Geometric Mean Ratio, Cmax ([4]; Smokers vs Non-Smokers): 99.49% | Geometric Mean Ratio, t1/2 ([4]; Smokers vs Non-Smokers): 77.51%
Compound: CCC(=O)NCC1CC1c1cccc2c1CC(O)O2 (centres unmarked) [M13]

AUC (ml) [3, 7]: 4.54 ± 2.39 ng·h/mL | Geometric Mean Ratio, AUC [3, 6]: 944.73% | Geometric Mean Ratio, Cmax [3, 6]: 264.58% | Geometric Mean Ratio, t1/2 [3, 6]: 243.34% | AUC (ml) [3, 9]: 42.6 ± 27.3 ng·h/mL | Geometric Mean Ratio, AUC (inf) ([4]; Smokers vs Non-Smokers): 42.98% | Geometric Mean Ratio, Cmax ([4]; Smokers vs Non-Smokers): 60.17% | Geometric Mean Ratio, t1/2 ([4]; Smokers vs Non-Smokers): 65.09%
Compound: CCC(=O)NCC1CC1c1cccc2c1C(O)CO2 (centres unmarked) [M14]
